According to US20170368082A1, “FORMULATIONS OF BRINCIDOFOVIR” (priority 2016, published 2017):
Where two headings read alike, the source gives them in different places.

Key:
[1] = Infusion vehicle (5% dextrose) compatibility; type: physicochemical; conditions: ambient
Experimental: A brincidofovir formulation comprising 10 mg/mL brincidofovir, 200 mM sodium phosphate, and 69 mM dextrose (pH=8.0) was diluted with the testing infusion vehicle (5% dextrose solution) to yield c(BCV)=0.5 and 1.0 mg/mL solutions. The diluted solutions were stored at ambient conditions, and samples were collected at initially at the beginning of the experiment, and after 2 h, 8 h, and 24 h and evaluated for appearance, pH, and recovery of c(BCV) (via HPLC). […] Detailed results of the study are summarized below (Table 18).
The Formulation 3a was diluted with the infusion vehicle (5% dextrose) solution to yield c(BCV)=0.5 mg/mL and 1.0 mg/mL solutions. The appearance, pH, and brincidofovir recovery (determined via HPLC) were evaluated at the time of preparing the test solution (to), and after 2 h (t2h), 8 h (t8h), and 24 h (t24h)

[2] = IV BCV single ascending dose study: plasma BCV and CDV PK; type: in vivo, human; conditions: for Tmax / clearance / half-life / AUC(0-inf) / Cmax / Vd: human; for Tmax: intravenous; for clearance / half-life / AUC(0-inf) / Cmax / Vd: plasma; for Vd: read-out: Vss
Experimental: Plasma PK samples were collected over 7 days and assayed by HPLC-MS. Plasma BCV PK parameters were determined by non-compartmental analysis and dose proportionality was assessed. Safety assessments were collected over 14 days.

[3] = 7-day dose range-finding study, 2-hour IV infusion (Phase 2): toxicity; type: in vivo, Sprague-Dawley CD rats
Experimental: For Phase 2, Sprague-Dawley CD® rats (5/sex/group) were dosed with brincidofovir via 2-hour IV infusion with 0 [2× sodium phosphate buffer solution (400 mM, pH 8.0±0.04)], 1 or 15 mg/kg on Days 1, 4 and 7. The dose volume was 10 mL/kg/hr for all groups. At the end of the Phase 2 treatment period, all animals were euthanized and necropsied. Phase 2 satellite animals (3/sex/Group 1 and 6/sex/Group 2-3) were similarly dosed and blood samples collected on Days 1 and 7 for toxicokinetic analysis of brincidofovir and one of its metabolites, cidofovir.
For Phase 2 (DRF), the test and control articles were administered, via intravenous 2-hour IV infusion to rats on Days 1, 4, and 7.
During Phase 2, each animal received brincidofovir administrations via intravenous infusion (2-hours) on Days 1, 4 and 7. Animals were maintained on sterile saline at a rate of 0.5 mL/hour between doses. Catheters were tied off after the completion of dose administration on Day 7 (a knot was placed in the catheter and the catheter was receded under the skin) and jackets were removed.
Blood obtained via the orbital sinus (retrobulbar venous plexus) as a terminal procedure under light isoflurane anesthesia was used to analyze hematology and clinical chemistry parameters for all animals at termination of dosing. Animals were fasted overnight prior to blood collection. Animals were not allowed to recover from anesthesia after blood collection.
Blood samples (approximately 0.25 mL) were collected into tubes containing K2EDTA anticoagulant and analyzed for the following using a Siemens ADVIA 120 Hematology Analyzer: Hemoglobin concentration (HGB); Hematocrit (HCT); Erythrocyte count (RBC); Platelet count (PLT); Mean corpuscular volume (MCV); Mean corpuscular hemoglobin (MCH); Mean corpuscular hemoglobin concentration (MCHC); Red cell distribution width (RDW); Total leukocyte count (WBC); Reticulocyte count (RETIC); Differential leukocyte count (Manual differential leukocyte counts were performed for verification and absolute values were calculated if necessary); Neutrophils (ANEU); Lymphocytes (ALYM); Eosinophils (AEOS); Basophils (ABASO); Monocytes (AMONO); Large unstained cells (ALUC);
Blood samples (approximately 1 mL) were collected into tubes with no anticoagulant, allowed to clot, centrifuged to obtain serum and analyzed for the following using a Siemens ADVIA 1800 Chemistry Analyzer: Aspartate aminotransferase (AST) (Kinetic—Modified Bergmeyer); Alanine aminotransferase (ALT) (Kinetic—Modified Bergmeyer); Alkaline phosphatase (ALKP) (Kinetic—Tietz AMP Buffer); Blood urea nitrogen (BUN) (Enzymatic Roch-Ramek with Urease); Creatinine (CREAT) (Jaffe Picric Acid in Alkaline Medium); Glucose (GLU) (Glucose Hexokinase II Method); Cholesterol (CHOL) (Enzymatic esterase/oxidase Trinder Endpoint); Triglycerides (TRIG) (Fossati Three Step Enzymatic—Trinder Endpoint); Total protein (TP) (Biuret Technique); Albumin (ALB) (Bromocresol Green Method); Total bilirubin (TBILI) (Oxidation with Vandate); Sodium (NA^+) (Ion Selective Electrode); Potassium (K^+) (Ion Selective Electrode); Chloride (Cr) (Ion Selective Electrode); Calcium (Ca′) (Michaylova & Ilkova, Arsenazo III); Inorganic phosphorus (PHOS) (Phosphomolybdate—UV Method).
Complete macroscopic examinations were performed on all Phase 2 main study animals. The macroscopic examination included examination of the external surface and all orifices; the external surfaces of the brain and spinal cord; the organs and tissues of the cranial, thoracic, abdominal and pelvic cavities and neck; and the remainder of the carcass for the presence of macroscopic morphologic abnormalities. Animals were discarded after examination; no tissues were collected or preserved.

[4] = c(BCV) 0.5 mg/mL in 5% dextrose, 0 h
[5] = c(BCV) 0.5 mg/mL in 5% dextrose, 2 h
[6] = c(BCV) 0.5 mg/mL in 5% dextrose, 8 h
[7] = c(BCV) 0.5 mg/mL in 5% dextrose, 24 h
[8] = c(BCV) 1.0 mg/mL in 5% dextrose, 0 h
[9] = c(BCV) 1.0 mg/mL in 5% dextrose, 2 h
[10] = c(BCV) 1.0 mg/mL in 5% dextrose, 8 h
[11] = c(BCV) 1.0 mg/mL in 5% dextrose, 24 h
[12] = iv, 10 mg, plasma BCV, Cohort 1, BCV 10 mg 2 h IV infusion, n = 6
[13] = iv, 25 mg, plasma BCV, Cohort 2, BCV 25 mg 2 h IV infusion, n = 6
[14] = iv, 50 mg, plasma BCV, Cohort 3, BCV 50 mg 2 h IV infusion, n = 9
[15] = iv, 50 mg, plasma BCV, Cohort 4, BCV 50 mg 4 h IV infusion, n = 9

CCCCCCCCCCCCCCCCOCCCOP(=O)(O)CO[C@H](CO)Cn1ccc(N)nc1=O [Brincidofovir]
Appearance [1, 4]: Clear, colorless | Measured pH [1, 4]: 8.2 | Observed c(BCV) [1, 4]: 0.51 mg/mL | Appearance [1, 5]: Clear, colorless | Measured pH [1, 5]: 8.3 | Observed c(BCV) [1, 5]: 0.51 mg/mL | Appearance [1, 6]: Clear, colorless | Measured pH [1, 6]: 8.2 | Observed c(BCV) [1, 6]: 0.51 mg/mL | Appearance [1, 7]: Clear, colorless | Measured pH [1, 7]: 8.2 | Observed c(BCV) [1, 7]: 0.49 mg/mL | Appearance [1, 8]: Clear, colorless | Measured pH [1, 8]: 8.2 | Observed c(BCV) [1, 8]: 1.0 mg/mL | Appearance [1, 9]: Clear, colorless | Measured pH [1, 9]: 8.2 | Observed c(BCV) [1, 9]: 1.0 mg/mL | Appearance [1, 10]: Clear, colorless | Measured pH [1, 10]: 8.2 | Observed c(BCV) [1, 10]: 1.0 mg/mL | Appearance [1, 11]: Clear, colorless | Measured pH [1, 11]: 8.2 | Observed c(BCV) [1, 11]: 1.0 mg/mL | Geometric mean plasma BCV AUC∞ relative to oral 100 mg tablets ([2]; BCV IV 50 mg): 4.5 fold | Plasma BCV Cmax and AUCs vs dose ([2]; IV single ascending dose): increased in proportion to dose | Tmax ([2]; 50 mg, plasma BCV, 4-hour infusion (Cohort 4)): 2.5 to 4 h | Tmax ([2]; plasma BCV, Cohorts 1-3 (2-hour infusion)): 2 h | clearance [2, 12]: 127 mL/min | half-life [2, 12]: 3.42 h | AUC(0-inf) ([2]; iv, 10 mg, plasma BCV, Cohort 1, BCV 10 mg 2 h IV infusion, n = 6, geometric mean, read-out: AUC∞): 1310 ng·h/mL | Cmax ([2]; iv, 10 mg, plasma BCV, Cohort 1, BCV 10 mg 2 h IV infusion, n = 6, geometric mean, read-out: Cmax): 613 ng/mL | Vd [2, 12]: 16.4 L | clearance [2, 13]: 144 mL/min | half-life [2, 13]: 5.89 h | AUC(0-inf) ([2]; iv, 25 mg, plasma BCV, Cohort 2, BCV 25 mg 2 h IV infusion, n = 6, geometric mean, read-out: AUC∞): 2890 ng·h/mL | Cmax ([2]; iv, 25 mg, plasma BCV, Cohort 2, BCV 25 mg 2 h IV infusion, n = 6, geometric mean, read-out: Cmax): 1410 ng/mL | Vd [2, 13]: 19.8 L | clearance [2, 14]: 140 mL/min | half-life [2, 14]: 6.54 h | AUC(0-inf) ([2]; iv, 50 mg, plasma BCV, Cohort 3, BCV 50 mg 2 h IV infusion, n = 9, geometric mean, read-out: AUC∞): 5950 ng·h/mL | Cmax ([2]; iv, 50 mg, plasma BCV, Cohort 3, BCV 50 mg 2 h IV infusion, n = 9, geometric mean, read-out: Cmax): 2950 ng/mL | Vd [2, 14]: 19.5 L | clearance [2, 15]: 127 mL/min | half-life [2, 15]: 5.1 h | AUC(0-inf) ([2]; iv, 50 mg, plasma BCV, Cohort 4, BCV 50 mg 4 h IV infusion, n = 9, geometric mean, read-out: AUC∞): 6570 ng·h/mL | Cmax ([2]; iv, 50 mg, plasma BCV, Cohort 4, BCV 50 mg 4 h IV infusion, n = 9, geometric mean, read-out: Cmax): 1590 ng/mL | Vd [2, 15]: 10.8 L | AUC(0-inf) ([2]; po, 100 mg, BCV oral 100 mg tablets, read-out: Plasma BCV AUC∞): 1390 ng·h/mL | Cmax ([2]; po, 100 mg, BCV oral 100 mg tablets, read-out: Plasma BCV Cmax): 251 ng/mL | Tolerability ([3]; 1 and 15 mg/kg/day, Days 1, 4 and 7): well tolerated | Clinical signs ([3]; 1 or 15 mg/kg/day): did not result in any brincidofovir-related clinical signs | Decrease in red cell mass vs controls (to) ([3]; end of 7-day dosing phase): −4.2% | Change in reticulocytes vs controls ([3]; females, 15 mg/kg): −30% | Change in urea (BUN) vs controls ([3]; females, 15 mg/kg): +29% | Change in total calcium vs controls ([3]; females, ≧1 mg/kg): +4.9% | Change in MCHC vs controls ([3]; males, 15 mg/kg): +2.1% | Change in total calcium vs controls ([3]; males, 15 mg/kg): +3.8% | Change in reticulocytes vs controls ([3]; males, 15 mg/kg, Days 1, 4, 7): −33%
